Patent publication US20250255932A1, “Granulocyte-Colony Stimulating Factor For The Promotion Of Scarless Tissue Regeneration” (The United States Government As Represented By The …, priority 2024, published 2025)

Columns and labels:
[1] = test system: ear hole injury in WT and CXCR2-KO mice; assay: Ear hole closure with topical imiquimod 5% cream; assay type: in vivo
Method: For ear wounding, a standard 2 mm mechanical punch (Roboz, Gaithersburg, MD) was used to create a hole in the center of each outer ear (pinna). Ear hole diameter was measured using a dissection microscope (Nikon) in the horizontal and vertical directions on a weekly basis. Ears were excluded if there were signs of wound infection, tearing of the ear, or abnormal geometric shape. These criteria were pre-established. For the antibiotic experiments, the same protocol as previously published was used (11).
To assess whether the CXCR2-mediated pathway utilized the same molecular mechanism, […] imiquimod 5% cream was rubbed on skin 5 days per week, beginning one week prior to ear hole injury in WT and CXCR2-KO mice. […] Imiquimod-treated CXCR2-KO mice achieved complete ear hole closure at a 90% frequency, which was >2-fold higher than CXCR2-KO mice (FIG. 9B, bottom graphs). Indeed, this 90% complete closure rate in imiquimod-treated CXCR2-KO mice is greater than the individual imiquimod or CXCR2 components combined.

[2] = test system: Cxcl2; conditions: exogenous CFH; cited from earlier work
[3] = test system: WT mice undergoing WIHN; assay: Wound induced hair neogenesis (WIHN), injection into the wound bed; assay type: in vivo; conditions: recombinant G-CSF vs PBS injected daily into wound beds of WT mice for the first 3 days
Method: To assess whether the circulating factor(s) was a cell or protein, plasma from CXCR2-KO and WT (control) mice was collected and injected daily into the wound beds of WT mice undergoing WIHN for the first 3 days after injury (FIG. 4B). The WIHN model was used because the wound bed was more accessible. […] Thus, a circulating protein in CXCR2-KO plasma improves tissue regeneration.
(§1) Next, recombinant G-CSF or PBS (control) was injected daily into the wound beds of WT mice undergoing WIHN for the first 3 days (FIG. 4D). […] This experiment was repeated in the stented back wound model. G-CSF-treated mice healed with >3-fold less scar formation compared to control mice (FIG. 4E). […] Taken together, exogenous G-CSF is sufficient to reduce scar formation and to promote complete tissue regeneration.
1-cm^2 full-thickness skin wounds were made as previously described (10). 5-weeks later, de novo hair follicles were identified by whole-mount alkaline phosphatase staining of dermis preparations as previously described.

[4] = test system: stented back wounds on WT mice; assay: Stented back wound model; assay type: in vivo
Method: as §1
(§2) In our single-cell datasets, neutrophils and macrophages were the primary cell types in injured skin to express the G-CSF receptor (Csfr3) (FIG. 8D). […] Immunofluorescence confirmed that macrophages in WT and CXCR2-KO injured skin expressed the G-CSF receptor (FIG. 8E). […] Moreover, wounded tissue was collected at day 4 after injury in the stented back wound model from G-CSF-treated or PBS-treated WT mice. […] Taken together, G-CSF reduces scar formation and promotes tissue regeneration through polarization of infiltrating macrophages into an anti-inflammatory phenotype.
6 mm disposable biopsy punch (Acuderm) was used to make two circular full thickness wounds on the dorsal back skin of mice. Silicon wound splints (Grace Bio-Labs) were sutured with 4-0 Nylon to prevent skin contracture. Wounds were dressed with a sterile occlusive dressing and monitored daily. Borders were monitored by frequently application of permanent marker.
Standard histology and immunostaining protocols were performed, and investigators were blinded during histologic staining. 4% paraformaldehyde was used as the fixative. Briefly, immunohistochemical analysis was performed on 5-10 μm-thick sections of mouse skin. The following primary antibodies were used: rabbit monoclonal anti-Arginase-1 (93668, Cell Signaling Technology), rabbit polyclonal anti-CD80 (8679, ProSci), rabbit polyclonal anti-Histone H3 (ab5103, Abcam), goat polyclonal anti-MPO (AF3667, R&D Systems), Goat polyclonal anti-CD206 (AF2535, R&D Systems), rabbit monoclonal anti-F4/80 (70076, Cell Signaling Technology), rabbit polyclonal anti-COX2 (ab15191, Abcam), rabbit anti-iNOS (2982, Cell Signaling Technology), rabbit polyclonal anti-GCSFR (bs-2574R, Bioss) rabbit monoclonal anti-CD163 (68922, Cell Signaling Technology) and rat anti-Ly6G (551459, BD Pharmingen). […] After staining, images were directly analyzed using a Leica Microsystems DM6 B microscope equipped with a DFC9000 Camera or Keyence imaging system. […] Immunofluorescent images were analyzed using FIJI (40). The signal for the protein of interest was calculated as the percent area occupied by the cells positive for the protein of interest within the tissue section.
The paraffin sections were first de-waxed and hydrated. […] The acquired images were analyzed for fibrosis by quantifying the percent of collagen 1 (PSR) signal within the wounded tissue region. […]

[5] = test system: bone-marrow derived monocytes; assay: In vitro polarization of bone-marrow derived monocytes (bulk RNA-seq gene expression); assay type: cell-based, mouse; conditions: monocytes treated with and without G-CSF, gene expression levels (FPKM)
From the text: as §2
Monocytes were lysed immediately by adding TRIzol LS reagent. The samples were vortexed for 20 seconds, 0.2×volumes of chloroform was added, tubes were mixed by inverting and samples were centrifuged at 13,000 rpm at 4° C. for 15 min. The aqueous phase was then purified and the RNA-seq library were made using NEBNext® Low Input RNA Library Prep Kit (E6420S/L), following the manufacturer's instructions.
Fastq files were aligned to the mm10 reference genome using STAR_2.4.0 in basic two Pass mode using the “Encode” options as specified in the manual. Reads overlapping with annotated genes (Ensembl build mm10) were counted using the summarizeOverlaps function from the R package “GenomicAlignments” in strand-specific, paired-end mode. […]

[6] = test system: epidermolysis bullosa patients; conditions: systemic G-CSF; cited from earlier work

For CC(C)Cn1cnc2c(N)nc3ccccc3c21 [Imiquimod, imiquimod], the ear hole closure ([1]; imiquimod 5% cream on skin 5 days per week from one week prior to injury, vs control-treated mice) was “closed their ear holes even more efficiently than control-treated mice”, the “frequency of complete ear hole closure” value ([1]; imiquimod-treated CXCR2-KO mice) was 90% and the “complete ear hole closure frequency relative to CXCR2-KO mice” value ([1]; imiquimod-treated CXCR2-KO mice vs CXCR2-KO mice) was over 2 fold.

In the case of complement factor H [CFH], the “fibroblast-specific expression of Cxcl2” value [2] is listed as “reduces fibroblast-specific expression of Cxcl2”, the macrophage recruitment [2] is listed as “no changes in macrophage recruitment” and the neutrophil recruitment [2] is listed as “reduced neutrophil recruitment”. The tissue regeneration [2] was “partial tissue regeneration”.

B1: Granulocyte Colony-Stimulating Factor (protein, UniProt P09920 31-208, looked up)
Granulocyte …: VPLVTVSALPPSLPLPRSFLLKSLEQVRKIQASGSVLLEQLCATYKLCHPEELVLLGHSLGIPKASLSGCSSQALQQTQCLSQLHSGLCLYQGLLQALSGISPALAPTLDLLQLDVANFATTIWQQMENLGVAPTVQPTQSAMPAFTSAFQRRAGGVLAISYLQGFLETARLALHHLA
notes: recombinant G-CSF injected into wound beds of WT mice
For B1, the “increase in hair follicle regeneration compared to control mice” value [3] was 5 fold, the “less scar formation compared to control mice” value ([4]; G-CSF vs PBS, scar size at day 28 after injury) was over 3 fold and the “fibrosis in healed skin (picrosirius red staining)” value ([4]; G-CSF-treated WT mice vs control skin) was “less fibrosis than control skin”. For the same molecule, the “anti-inflammatory macrophages (Cd163 and Mrc1) in wounded tissue” value ([4]; day 4 after injury, G-CSF-treated vs PBS-treated WT mice) was “more anti-inflammatory macrophages”, the average scar diameter ([4]; histological analysis, G-CSF-treated WT mice (PBS ~1.8 mm)) was about 0.5 mm and the polarization of monocytes [5] was “directly polarized in vitro bone-marrow derived monocytes into an anti-inflammatory state”. The “blister counts and wound sizes” value [6] was “reduced blister counts and wound sizes”.
